Data from patent publication US20180021303A1, “BKCA CHANNEL ACTIVATOR FOR TREATING MUSCULAR DISORDER” (Canbex Therapeutics Limited, priority 2015, published 2018).

Key:
[1] = tested on: Biozzi ABH mice with visible spasticity (relapsing progressive experimental autoimmune encephalomyelitis); experiment: Spasticity (limb stiffness against a strain gauge) in Biozzi ABH mice with relapsing progressive experimental autoimmune encephalomyelitis; type: in vivo, mouse; details: result in words
Protocol: BMS 204352 and NS 1619 were dissolved in ethanol:cremophor:phosphate buffered saline 1:1:18. […] Paxilline was used at 1 mg/kg, just below doses reported to cause tremors in mice.
Biozzi ABH were injected with mouse spinal cord homogenate in Freunds adjuvant on day 0 and day 7 based on published protocols (Al-Izki S. et al. Mult Scler Rel Dis. 2012; 1: 29-38 and relapsing progressive experimental autoimmune encephalomyelitis developed. Following the development of visible spasticity animals were randomly allocated to treatment groups and spasticity was assessed by measuring limb stiffness against a strain guage (Pryce G. et al. FASEB J. 28: 2014; 117-130).
Animals were injected with: • BMS 204352: 20 mg/kg i.p. n=11 (FIG. 1; Table 2); • NS 1619: 10 mg/kg i.p. n=13 (FIG. 2; Table 1); • NS 11021: 10 mg/kg i.p. n=13 (FIG. 3; Table 3) in ethanol:cremophor:PBS (1:1:18).

[2] = from previously published data; cited from earlier work
[3] = from previously published data; cited from earlier work; remark: listed apart in the source

COc1ccc(Cl)cc1[C@]1(F)C(=O)Nc2cc(C(F)(F)F)ccc21 [BMS 204352, (3S)-3-(5-chloro-2-methoxyphenyl)-3-fluoro-1,3-dihydro-6-(trifluoromethyl)-2H-Indol-2-one]
Efficacy in a mouse model of spasticity in multiple sclerosis [1]: effective | CNS penetration [2]: CNS penetrant | Tolerability [3]: well tolerated

O=c1[nH]c2cc(C(F)(F)F)ccc2n1-c1cc(C(F)(F)F)ccc1O [NS 1619, 1,3-dihydro-1-[2-hydroxy-5-(trifluoromethyl)phenyl]-5-(trifluoromethyl)-2H-benzimidazol-2-one]
CNS penetration [2]: CNS excluded
